As usually defined, the Vmax is the top rate of the reaction or transport when substrate is in excess. The term IC50 denotes the point on the concentration scale where inhibition reaches its midpoint.

The text below walks through data of publication PMC10758829 (Heliyon, 2023).

Data set [1] relates to NCC(=O)N1CCC[C@H]1C(=O)Nc1ccc([N+](=O)[O-])cc1. In words: purified protein. The data set is classed as biochemical, Homo sapiens.
For data set [2], the target named is dipeptidyl peptidase IV (DPP-IV) (Homo sapiens, UniProt P27487). Description: Gly-Pro-pNA chromogenic assay with recombinant enzyme. It counts as biochemical.
Chain of dipeptidyl peptidase IV (DPP-IV) (P27487 39-766): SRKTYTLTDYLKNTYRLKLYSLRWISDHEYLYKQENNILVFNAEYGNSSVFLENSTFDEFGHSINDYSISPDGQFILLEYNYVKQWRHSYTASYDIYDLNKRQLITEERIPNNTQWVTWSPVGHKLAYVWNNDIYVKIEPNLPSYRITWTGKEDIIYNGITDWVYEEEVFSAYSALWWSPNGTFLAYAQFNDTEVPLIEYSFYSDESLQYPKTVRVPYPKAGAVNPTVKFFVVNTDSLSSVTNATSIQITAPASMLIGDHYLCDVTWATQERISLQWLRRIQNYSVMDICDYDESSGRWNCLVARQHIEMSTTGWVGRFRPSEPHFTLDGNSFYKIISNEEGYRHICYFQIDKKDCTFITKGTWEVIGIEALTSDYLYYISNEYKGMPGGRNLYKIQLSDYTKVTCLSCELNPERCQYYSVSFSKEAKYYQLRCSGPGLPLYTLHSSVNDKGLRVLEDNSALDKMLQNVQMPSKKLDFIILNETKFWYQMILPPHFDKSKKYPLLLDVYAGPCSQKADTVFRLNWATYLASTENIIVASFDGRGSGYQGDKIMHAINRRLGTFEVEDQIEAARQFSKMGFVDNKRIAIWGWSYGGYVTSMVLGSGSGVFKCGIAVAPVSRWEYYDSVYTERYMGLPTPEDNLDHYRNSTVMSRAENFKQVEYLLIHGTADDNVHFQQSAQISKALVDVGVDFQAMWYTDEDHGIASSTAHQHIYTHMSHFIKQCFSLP

Consider “dipeptidyl peptidase IV (DPP-IV) (Homo sapiens)”, for which, in data set [1], the Vmax was found to be 1200 µM/min.

For the compound `CCCCCc1cc(O)c2c(c1)OC(C)(C)c1ccc(C)cc1-2` [CBN, cannabinol], in data set [2], the IC50 is 12.9 µM.

As to `C=C(C)[C@@H]1CCC(C)=C[C@H]1c1c(O)cc(CCCCC)cc1O` [CBD, cannabidiol], the IC50 in data set [2] was 21.9 µM.

On to `CCCCCc1cc(O)c(C/C=C(\C)CCC=C(C)C)c(O)c1` [CBG, cannabigerol], for which, in data set [2], the IC50 was 20.2 µM.
